In ChEMBL document CHEMBL1146411, “1-Hydroxyditerpenes from Two New Zealand Liverworts, Paraschistochila pinnatifolia and Trichocolea mollissima” (J Nat Prod, 1997):
In brackets after ≈: the same amount, converted by molar mass. Activity calls are given as the source filed them. The calls are words filed in the database; no cut-off is given here.

Key:
[1] = Cytotoxicity against […] BSC cells at 60 ug/disk; format: cell-based
[2] = tested on: P388; assay: Cytotoxicity against mouse P388 cells; format: functional, cell-based
[3] = tested on: Candida albicans; assay: Antimicrobial activity against Candida albicans at 60 ug/disk; format: functional, organism-based

Compound	Activity [1]	IC50 [2] [µg/mL]	Activity [3]
C=C[C@@]1(C)C=C2CC[C@@H]3C(C)(C)CC[C@H](O)[C@@]3(C)[C@@H]2CC1	Not Active	> 25	inactive
C[C@@H]1C[C@@]23CC[C@@H]4C(C)(C)CC[C@H](O)[C@@]4(C)[C@@H]2CC(=O)[C@@H]1C3	–	15 (≈ 49.3 µM)	–
